From paper PMC6934184, “Selective DNA-PKcs inhibition extends the therapeutic index of localized radiotherapy and chemotherapy” (The Journal of Clinical Investigation, 2019)

Target: T1, ULK3 (Homo sapiens, UniProt Q6PHR2)
T1 construct: purchased Thermo Fisher Scientific (Life Technologies) SelectScreen
Assay: SelectScreen LanthaScreen
Assay type: binding
Details: 1 µM
Outline: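 Percent values come from Thermo SelectScreen profiling of NU5455, combining activity and binding assays. CSF1R was run in Z'LYTE format at Km app ATP, and CAMK1 in Adapta format with ATP listed at 10.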

T1 sequence (Q6PHR2 whole entry): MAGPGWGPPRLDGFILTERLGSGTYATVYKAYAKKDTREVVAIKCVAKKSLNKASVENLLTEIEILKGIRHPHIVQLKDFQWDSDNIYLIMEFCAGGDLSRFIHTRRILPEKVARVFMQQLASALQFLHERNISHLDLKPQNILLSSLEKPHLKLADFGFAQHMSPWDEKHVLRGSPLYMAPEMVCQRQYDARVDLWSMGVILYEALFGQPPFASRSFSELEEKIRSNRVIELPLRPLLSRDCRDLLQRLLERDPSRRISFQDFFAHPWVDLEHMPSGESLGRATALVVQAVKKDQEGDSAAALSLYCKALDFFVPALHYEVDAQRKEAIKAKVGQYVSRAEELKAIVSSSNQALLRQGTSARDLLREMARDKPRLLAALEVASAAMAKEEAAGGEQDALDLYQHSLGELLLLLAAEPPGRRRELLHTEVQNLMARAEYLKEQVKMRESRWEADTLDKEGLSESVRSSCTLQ

SMILES: CN(C(=O)CN1CCOCC1)c1ccc2sc3c(-c4cccc5c(=O)cc(N6CC7CCC(C6)O7)oc45)cccc3c2c1 [NU5455]
- % displacement: 4.5%
